Assay results from the NIST ThermoML archive (doi:10.1007/s10765-010-0860-3).

Test: xn = mol fraction of the nth substance listed
Details: 101 kPa, Liquid; for viscosity: Capillary tube (Ostwald / Ubbelohde) method; for mass density: Pycnometric method

CC1COC(=O)O1 (configuration not stated) [4-methyl-1,3-dioxolan-2-one] + C1COCCO1
Details	mass density, 288.15 K [kg/m3]	mass density, 298.15 K [kg/m3]	mass density, 308.15 K [kg/m3]	viscosity, 288.15 K [mPa·s]	viscosity, 298.15 K [mPa·s]	viscosity, 308.15 K [mPa·s]
x1 = 0.0213	1042.6	1031.46	1020.15	1.429	1.181	1.027
x1 = 0.041	1045.89	1034.79	1023.54	1.421	1.177	1.027
x1 = 0.0636	1049.76	1038.7	1027.51	1.413	1.174	1.02
x1 = 0.0823	1053.01	1041.99	1030.85	1.408	1.173	1.026
x1 = 0.0999	1056.12	1045.13	1034.02	1.404	1.172	1.022
x1 = 0.202	1074.8	1064.02	1053.09	1.408	1.184	1.028
x1 = 0.299	1093.28	1082.69	1071.87	1.45	1.22	1.053
x1 = 0.3991	1112.62	1101.92	1091.44	1.534	1.286	1.102
x1 = 0.4991	1131.72	1121.15	1110.7	1.659	1.381	1.171
x1 = 0.5987	1150.06	1139.4	1129.1	1.826	1.508	1.274
x1 = 0.6996	1167.4	1156.75	1146.43	2.039	1.671	1.405
x1 = 0.8049	1183.66	1172.85	1162.59	2.307	1.878	1.571
x1 = 0.9003	1196.16	1185.45	1175.02	2.589	2.101	1.748
x1 = 1	1208.67	1197.58	1187.16	3.086	2.5	2.073

CC(=O)CC(C)=O [2,4-pentanedione] + CC1COC(=O)O1
Details	mass density, 288.15 K [kg/m3]	mass density, 298.15 K [kg/m3]	mass density, 308.15 K [kg/m3]	viscosity, 288.15 K [mPa·s]	viscosity, 298.15 K [mPa·s]	viscosity, 308.15 K [mPa·s]
x2 = 0	980.34	972.18	963.46	0.741	0.67	0.609
x2 = 0.0212	984.24	975.79	966.83	0.769	0.692	0.627
x2 = 0.0438	988.61	979.89	970.69	0.797	0.714	0.646
x2 = 0.0625	992.42	983.48	974.11	0.821	0.732	0.661
x2 = 0.0827	996.68	987.54	977.99	0.845	0.751	0.677
x2 = 0.1026	1001.03	991.71	982	0.868	0.769	0.693
x2 = 0.201	1024.5	1014.55	1004.29	0.978	0.857	0.766
x2 = 0.2982	1050.05	1039.83	1029.34	1.086	0.944	0.838
x2 = 0.4028	1078.89	1068.64	1058.14	1.215	1.047	0.922
x2 = 0.5	1105.74	1095.61	1085.24	1.359	1.162	1.014
x2 = 0.6016	1132.67	1122.7	1112.52	1.549	1.313	1.133
x2 = 0.6985	1156.08	1146.19	1136.15	1.782	1.495	1.277
x2 = 0.7995	1176.95	1166.95	1156.95	2.093	1.735	1.466
x2 = 0.9016	1193.11	1182.69	1172.51	2.493	2.04	1.706

CC1COC(=O)O1 (configuration not stated) [4-methyl-1,3-dioxolan-2-one] + C1CCOC1
Details	mass density, 288.15 K [kg/m3]	mass density, 298.15 K [kg/m3]	mass density, 308.15 K [kg/m3]	viscosity, 288.15 K [mPa·s]	viscosity, 298.15 K [mPa·s]	viscosity, 308.15 K [mPa·s]
x1 = 0.0188	901.15	890.25	879.17	0.524	0.47	0.432
x1 = 0.0393	910.03	899.18	888.14	0.542	0.479	0.439
x1 = 0.0603	918.97	908.19	897.18	0.561	0.49	0.448
x1 = 0.077	926	915.27	904.28	0.575	0.5	0.455
x1 = 0.0988	935.05	924.38	913.41	0.594	0.513	0.466
x1 = 0.2117	979.75	969.45	958.45	0.696	0.6	0.541
x1 = 0.3057	1014.39	1004.06	993.26	0.794	0.699	0.629
x1 = 0.4024	1047.72	1037.25	1026.68	0.921	0.831	0.745
x1 = 0.4992	1078.98	1068.45	1057.96	1.088	0.998	0.89
x1 = 0.5997	1109.33	1098.74	1088.29	1.317	1.211	1.072
x1 = 0.7015	1138.16	1127.39	1117.06	1.626	1.473	1.289
x1 = 0.8033	1165.19	1154.55	1144.02	2.03	1.786	1.54
x1 = 0.9064	1190.96	1179.68	1169.74	2.556	2.158	1.83
x1 = 1	1208.67	1197.58	1187.16	3.086	2.5	2.073
